The values that follow come from patent US10078087B2, “Assays and enhancers of the human delta ENaC sodium channel” (SENOMYX, INC., priority 2001, dated 2018).

Experiment [1] deals with human salty taste perception. The following applies: humans; concentrations that specifically modulate ENaC function; cited from earlier work.
The subject of experiment [2] is human salty taste perception. In words: effect of amiloride on human salty taste perception. In kind it is in vivo. As to conditions: humans; levels ~300-fold above IC50 for αβγ ENaC (~10-fold over IC50 for δβγ ENaC) in oocytes.
A further experiment deals with T1, δβγ hENaC (Homo sapiens, UniProt P51168+P51170+P51172).
T1 construct: expressed in transfected cells; host or cells: Xenopus laevis oocytes injected with cRNA of each subunit
T1 sequence (P51172 1-638 isoform P51172-1): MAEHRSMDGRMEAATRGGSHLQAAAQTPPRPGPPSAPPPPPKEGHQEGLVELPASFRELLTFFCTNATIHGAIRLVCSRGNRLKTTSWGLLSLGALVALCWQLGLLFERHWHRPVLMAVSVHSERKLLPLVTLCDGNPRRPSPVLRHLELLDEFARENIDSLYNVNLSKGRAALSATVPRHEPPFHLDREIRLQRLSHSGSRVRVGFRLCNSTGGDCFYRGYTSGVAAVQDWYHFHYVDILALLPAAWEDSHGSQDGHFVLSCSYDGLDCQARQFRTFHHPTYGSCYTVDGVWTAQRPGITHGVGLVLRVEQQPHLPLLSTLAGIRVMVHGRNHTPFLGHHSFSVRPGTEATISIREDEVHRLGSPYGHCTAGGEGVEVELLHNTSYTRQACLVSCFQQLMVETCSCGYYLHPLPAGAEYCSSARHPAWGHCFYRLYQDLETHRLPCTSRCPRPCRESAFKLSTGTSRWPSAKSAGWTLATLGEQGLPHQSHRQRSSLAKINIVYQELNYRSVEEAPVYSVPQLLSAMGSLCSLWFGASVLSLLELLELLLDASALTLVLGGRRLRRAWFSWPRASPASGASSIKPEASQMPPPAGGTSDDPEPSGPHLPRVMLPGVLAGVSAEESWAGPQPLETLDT
T1 sequence (P51168 1-640): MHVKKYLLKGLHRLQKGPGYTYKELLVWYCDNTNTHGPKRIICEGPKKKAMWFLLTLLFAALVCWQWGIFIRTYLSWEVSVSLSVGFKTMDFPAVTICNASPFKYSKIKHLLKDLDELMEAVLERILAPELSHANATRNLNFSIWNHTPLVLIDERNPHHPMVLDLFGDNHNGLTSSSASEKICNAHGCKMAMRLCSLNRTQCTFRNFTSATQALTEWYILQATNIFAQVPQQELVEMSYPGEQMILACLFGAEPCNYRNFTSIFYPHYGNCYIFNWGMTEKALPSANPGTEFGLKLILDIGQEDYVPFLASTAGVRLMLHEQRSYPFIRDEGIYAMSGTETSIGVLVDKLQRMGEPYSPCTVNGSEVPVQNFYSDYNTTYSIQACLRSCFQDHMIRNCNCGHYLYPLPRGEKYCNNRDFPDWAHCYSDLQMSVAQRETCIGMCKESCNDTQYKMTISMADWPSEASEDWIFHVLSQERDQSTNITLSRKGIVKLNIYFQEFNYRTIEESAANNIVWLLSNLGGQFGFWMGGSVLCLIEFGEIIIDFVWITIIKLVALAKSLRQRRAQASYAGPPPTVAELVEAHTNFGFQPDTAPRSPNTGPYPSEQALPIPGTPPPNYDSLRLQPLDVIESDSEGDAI
T1 sequence (P51170 1-649): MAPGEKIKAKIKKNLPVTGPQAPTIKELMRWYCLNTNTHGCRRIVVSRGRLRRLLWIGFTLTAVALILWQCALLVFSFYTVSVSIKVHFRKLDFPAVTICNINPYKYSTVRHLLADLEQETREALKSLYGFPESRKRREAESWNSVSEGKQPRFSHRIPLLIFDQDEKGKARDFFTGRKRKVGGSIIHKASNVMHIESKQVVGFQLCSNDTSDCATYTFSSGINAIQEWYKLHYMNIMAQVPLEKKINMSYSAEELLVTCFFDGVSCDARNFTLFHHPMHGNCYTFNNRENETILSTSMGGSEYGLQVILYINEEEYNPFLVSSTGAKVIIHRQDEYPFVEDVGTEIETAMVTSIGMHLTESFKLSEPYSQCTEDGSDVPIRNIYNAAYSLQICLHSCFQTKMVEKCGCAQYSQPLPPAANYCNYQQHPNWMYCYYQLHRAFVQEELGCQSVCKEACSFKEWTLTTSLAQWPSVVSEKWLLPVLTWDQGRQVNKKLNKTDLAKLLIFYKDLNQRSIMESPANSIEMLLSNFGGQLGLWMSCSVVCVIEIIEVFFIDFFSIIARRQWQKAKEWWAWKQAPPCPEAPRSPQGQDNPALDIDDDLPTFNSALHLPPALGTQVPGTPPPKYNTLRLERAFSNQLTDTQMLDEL
In words: two-electrode voltage clamp of oocytes expressing delta beta gamma hENaC. In kind it is cell-based. From the text:
α, β, and γ hENaC were cloned from kidney cDNA (Origene, Rockville, Md.) into pcDNA3 (Invitrogen, Carlsbad, Calif.) as described previously (Kellenberger, S and Schild, L. Physiol. Rev. 82:735-767(2002). δ hENaC was cloned from testis cDNA (BD Biosciences Clontech, Palo Alto, Calif.). α hENaC sequence was identical to published sequences from lung and kidney (Rossier et al., Annu. Rev. Physiol. 64:877-897 (2002); Alvarez de la Rosa et al., Annu. Rev. Physiol. 62:573-594 (200). (Genbank accession numbers X76180 and L29007). β hENaC sequence was identical to published sequence from lung Bigiani et al. Bigiani et al., Prog. Biophys. Mol. Biol. 83:193-225 (2003). (Genbank accession number X87159) with the exception of a glycine (nucleotide triplet GGC) to alanine (nucleotide triplet GCC) substitution in our clone at amino acid 314. […] (GenBank accession number BC059391). δ hENaC sequence was identical to published sequence from kidney (Shimkets et al., Cell 79: 407414 (1994)) with the exception of a tyrosine (nucleotide triplet TAC) to cysteine (nucleotide triplet TGC) substitution in our clone at amino acid 532.
ENaC cRNA was generated from linearized plasmids using the mMESSAGE mMACHINE kit with T7 RNA polymerase according to the manufacturer's instructions (Ambion, Austin, Tex.). cRNA quality was checked by denaturing agarose gel electrophoresis and spectrophometric absorbance readings at 260 and 280 nm to ensure that full-length, non-degraded cRNA was generated.
Female Xenopus laevis South African clawed frogs greater than or equal to 9 cm in length were obtained from NASCO (Fort Atkinson, Wis.). Frogs were anesthetized in 0.15% ethyl-3-aminobenzoate methanesulfonate (Sigma, St. Louis, Mo.) in distilled water and placed on ice. […]
Unless noted otherwise, ENaC function was measured using the two-electrode voltage clamp technique on an OpusXpress 6000A parallel oocyte voltage clamp system twenty-four hours post-microinjection (Axon Instruments, Union City, Calif.). […]
(In general: Two-electrode voltage clamp is typically applied to oocytes expressing channels or transporters.)

In the next experiment the target is T2, αβγ hENaC (Homo sapiens, UniProt P37088+P51168+P51170).
T2 construct: expressed in transfected cells; host or cells: Xenopus laevis oocytes injected with cRNA of each subunit
T2 sequence (P37088 1-669): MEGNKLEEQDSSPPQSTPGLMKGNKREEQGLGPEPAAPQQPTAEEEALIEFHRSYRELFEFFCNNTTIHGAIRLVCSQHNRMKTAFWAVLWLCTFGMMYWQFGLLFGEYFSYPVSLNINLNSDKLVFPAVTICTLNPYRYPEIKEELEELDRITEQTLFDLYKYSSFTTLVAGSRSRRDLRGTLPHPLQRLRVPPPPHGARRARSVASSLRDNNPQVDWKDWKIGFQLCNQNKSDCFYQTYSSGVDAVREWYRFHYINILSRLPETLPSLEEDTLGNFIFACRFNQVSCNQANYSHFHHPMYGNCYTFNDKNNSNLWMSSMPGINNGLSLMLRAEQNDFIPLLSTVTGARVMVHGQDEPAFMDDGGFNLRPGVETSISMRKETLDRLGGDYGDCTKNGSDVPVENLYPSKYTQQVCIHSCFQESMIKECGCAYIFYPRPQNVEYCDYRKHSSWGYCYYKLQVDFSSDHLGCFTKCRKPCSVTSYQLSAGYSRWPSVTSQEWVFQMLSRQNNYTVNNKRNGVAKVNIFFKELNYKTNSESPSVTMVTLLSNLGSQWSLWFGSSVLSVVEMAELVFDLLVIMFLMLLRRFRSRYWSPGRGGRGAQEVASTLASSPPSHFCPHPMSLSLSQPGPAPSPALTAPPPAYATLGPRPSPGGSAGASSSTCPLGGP
T2 sequence (P51168 1-640): T1 sequence (P51168 1-640)
T2 sequence (P51170 1-649): T1 sequence (P51170 1-649)
In words: two-electrode voltage clamp of oocytes expressing alpha beta gamma hENaC. It counts as cell-based.

Setting [3] is: compound concentration not given, N = 5-7 oocytes.

From the text for αβγ hENaC: α, β, and γ hENaC were cloned from kidney cDNA (Origene, Rockville, Md.) into pcDNA3 (Invitrogen, Carlsbad, Calif.) as described previously (Kellenberger, S and Schild, L. Physiol. Rev. 82:735-767(2002). δ hENaC was cloned from testis cDNA (BD Biosciences Clontech, Palo Alto, Calif.). α hENaC sequence was identical to published sequences from lung and kidney (Rossier et al., Annu. Rev. Physiol. 64:877-897 (2002); Alvarez de la Rosa et al., Annu. Rev. Physiol. 62:573-594 (200). (Genbank accession numbers X76180 and L29007). β hENaC sequence was identical to published sequence from lung Bigiani et al. Bigiani et al., Prog. […] (Genbank accession number X87159) with the exception of a glycine (nucleotide triplet GGC) to alanine (nucleotide triplet GCC) substitution in our clone at amino acid 314. […]
ENaC cRNA was generated from linearized plasmids using the mMESSAGE mMACHINE kit with T7 RNA polymerase according to the manufacturer's instructions (Ambion, Austin, Tex.). cRNA quality was checked by denaturing agarose gel electrophoresis and spectrophometric absorbance readings at 260 and 280 nm to ensure that full-length, non-degraded cRNA was generated. […]

As for `N=C(N)NC(=O)c1nc(Cl)c(N)nc1N` [amiloride], in experiment [1], the “reduction of intensity of sodium chloride taste” value is 15-20%. Further, the “effect on perceived salt intensity” value in experiment [2] was “did not elicit a significant effect”. Also, on δβγ hENaC, the inhibition at 10 µM is more than 90%. Besides, half-maximal inhibition against δβγ hENaC (Xenopus oocytes, n=10, mean±SEM) (IC50) required 2700 ± 300 nM. At αβγ hENaC, this molecule gave an inhibition at 1 µM of more than 90%.
On to Choline C1, for which the “% Enhance δβγ” value at δβγ hENaC (setting [3]) is 52 +/− 5%. Besides, on αβγ hENaC (setting [3]), the “% Enhance αβγ” value is 53 +/− 17%.

Broadly, the inhibition is the share of the control response that was lost under treatment. Broadly, the IC50 is the concentration that gives 50% inhibition. Low readings indicate higher potency, high ones lower potency.
